For data set [1], the target named is L-type voltage-dependent Ca2+ channel (Homo sapiens, UniProt O60840+Q01668+Q13698+Q13936). Briefly: Inhibition of L-type voltage-dependent Ca2+ channel at 1 uM.
Data set [2] can be described thus: Potentiation of forskolin-induced CFTR deltaF508 mutant expressed in FRT cells co-expressing halide-sensitive YFP-H148Q/I152L by fluorescence quenching assay. The class given is cell-based, Homo sapiens.

The source of these data is ChEMBL document CHEMBL2062363, “Ligand-based design, in silico ADME-Tox filtering, synthesis and biological evaluation to discover new soluble 1,4-DHP-based CFTR activators” (Eur J Med Chem, 2012).

For orientation: inhibition means the percentage by which the read-out fell short of the control. Higher therefore signals a strong effect. For `COC(=O)C1=C(C)N=C(C)/C(=C(/O)OC)C1/C=C/c1ccccc1` (stereo unspecified), 1 µM produced 18.8% inhibition in data set [1]. Also, in data set [2], the “pEC50 for potentiation of CFTR deltaF508 (activation potency)” value (“pEC50 for potentiation of CFTR deltaF508” for short) is 5.48. On the same counts, the results for `CCOC(=O)C1=C(C)NC(C)=C(C(=O)OC)C1c1ccc(Cl)c(Cl)c1` (stereo unspecified) are 100% and 6.89. For `CCOC(=O)C1=C(C)NC(C)=C(C(=O)OC)C1c1ccccc1` (stereo unspecified), in data set [1], the inhibition at 1 µM worked out at 100%. For `CCOC(=O)C1=C(C)NC(C)=C(C(=O)OCC)C1c1ccc(F)cc1`, the inhibition at 1 µM in data set [1] was 98.6%. Besides, the “pEC50 for potentiation of CFTR deltaF508” value in data set [2] is recorded as 5.87. For `COC(=O)C1=C(C)NC(C)=C(C(=O)OC)C1c1ccc(OC)c(Br)c1`, in that order: 32.4% and 5.48. For `COC(=O)C1=C(C)NC(C)=C(C(=O)OC)C1c1ccccc1Cl`, in that order: 100% and 6.34. `COc1ccc(C(=O)OC2C(C(=O)OCc3ccccc3)=C(C)NC(C)=C2C(=O)OCc2ccccc2)cc1OC` came in with an inhibition at 1 µM in data set [1] of 23.3%. In data set [2], the “pEC50 for potentiation of CFTR deltaF508” value came to 5.41. For `COC(=O)C1=CNC=C(C(=O)OC)C1c1ccc(Cl)c(Cl)c1`, in that order: 17.1% and 5.7.

Take `C=CCOC(=O)C1=C(C)NC(C)=C(C(=O)OCC=C)C1c1ccccc1Cl`: the inhibition at 1 µM in data set [1] came to 100%. In addition, in data set [2], the “pEC50 for potentiation of CFTR deltaF508” value was 6.74. In data set [1], `CCOC(=O)C1=C(C)NC(C)=C(C(=O)OCC)C1c1c(F)cccc1Cl` returned an inhibition at 1 µM of 100%. Also, the “pEC50 for potentiation of CFTR deltaF508” value in data set [2] amounted to 6.44. For `C=CCOC(=O)C1=C(C)NC(C)=C(C(=O)OCC=C)C1c1ccc(O)c(OCC)c1`, in that order: 63.6% and 6.46. On the same counts, the results for `CCOc1ccc(C2C(C(=O)OC)=C(C)NC(C)=C2C(=O)OC)cc1OC` are 22.6% and 5.62.

In data set [1], `CC1=C(C(=O)OCc2ccccc2)C(c2ccc(O)cc2)C(C(=O)OCc2ccccc2)=C(C)N1` showed an inhibition at 1 µM of 72.8%. Moreover, the “pEC50 for potentiation of CFTR deltaF508” value in data set [2] was 5.92. For `CCOC(=O)C1=C(C)NC(C)=C(C(=O)OC)C1c1cc(Cl)cc(Cl)c1OC` (stereo unspecified), in that order: 100% and 6.62. The compound `CCCCOc1ccc(C2C(C(=O)OCC)=C(C)NC(C)=C2C(=O)OCC)cc1` displayed an inhibition at 1 µM in data set [1] of 9.6%. Also, the “pEC50 for potentiation of CFTR deltaF508” value in data set [2] is 5.52. On to `CCOC(=O)C1=C(C)NC(C)=C(C(=O)OCC)C1c1ccc2c(c1)OCO2`, for which the inhibition at 1 µM in data set [1] is 38.2%. Moreover, the “pEC50 for potentiation of CFTR deltaF508” value in data set [2] came to 5.77.

In data set [1], `CCOC(=O)C1=C(C)NC(C)=C(C(=O)OCC)C1c1ccccc1Cl` displayed an inhibition at 1 µM of 100%. For the same compound, the “pEC50 for potentiation of CFTR deltaF508” value in data set [2] came to 6.59. In data set [1], `CCOC(=O)C1=C(C)N(c2ccc(OC)cc2)C(C)=C(C(=O)OCC)C1c1ccccc1` had an inhibition at 1 µM of 38.7%. As for `CCOC(=O)C1=C(C)NC(C)=C(C(=O)OCC)C1c1ccc(OCC)cc1`, the inhibition at 1 µM in data set [1] worked out at 58.7%. Also, in data set [2], the “pEC50 for potentiation of CFTR deltaF508” value is on record as 6.29. The compound `COCCOC(=O)C1=C(C)N=C(C)/C(=C(/O)OCCOC)C1/C=C/c1ccccc1OC` (stereo unspecified) had an inhibition at 1 µM in data set [1] of 10.6%. For the same compound, the “pEC50 for potentiation of CFTR deltaF508” value in data set [2] turned out to be 6.1. On the same counts, the results for `CCOC(=O)C1=C(C)NC(C)=C(C(=O)OC)C1c1ccc(C)o1` (stereo unspecified) are 37.6% and 6.15. Regarding `C=CCOC(=O)C1=C(C)NC(C)=C(C(=O)OCC=C)C1c1cccc([N+](=O)[O-])c1`, the inhibition at 1 µM in data set [1] was 100%. In addition, in data set [2], the “pEC50 for potentiation of CFTR deltaF508” value is 6.92. In turn, `CCOC(=O)C1=C(C)NC(C)=C(C(=O)OCC)C1c1ccc(C)cc1` showed an inhibition at 1 µM in data set [1] of 29.4%. As for `COC(=O)C1=C(C)NC(C)=C(C(=O)OC)C1c1ccc(OCc2ccccc2)cc1`, testing at 1 µM in data set [1] gave an inhibition of 22.5%. For the same compound, in data set [2], the “pEC50 for potentiation of CFTR deltaF508” value stood at 5.46. On the same counts, the results for `C=CCO/C(O)=C1\C(C)=NC(SCC)=C(C#N)C1c1ccc(Cl)cc1` (stereo unspecified) are 29.7% and 5.58. Compound `CCN(CC)c1ccc(C2C(C(=O)OC)=C(C)NC(C)=C2C(=O)OC)cc1` registered an inhibition at 1 µM in data set [1] of 7.1%. Also, the “pEC50 for potentiation of CFTR deltaF508” value in data set [2] is listed as 5.92. On the same counts, the results for `COC(=O)C1=C(C)NC(C)=C(C(=O)OC)C1c1ccc2c(c1)OCO2` are 37.2% and 5.71. On the same counts, the results for `CCOC(=O)C1=C(C)NC(C)=C(C(=O)OCC)C1c1cccc(Br)c1` are 100% and 6.54. With `C=CCOC(=O)C1=C(C)NC(C)=C(C(=O)OCC=C)C1c1ccc(C)cc1`, in data set [1], the inhibition at 1 µM came out at 55.7%. In addition, the “pEC50 for potentiation of CFTR deltaF508” value in data set [2] came out at 6.3. For `CC1=C(C(=O)OC(C)C)C(c2ccc(F)cc2)C(C(=O)OC(C)C)=C(C)N1`, in that order: 96.8% and 6.52. On the same counts, the results for `C=CCOC(=O)C1=C(C)NC(C)=C(C(=O)OCC=C)C1c1ccc(Cl)c(Cl)c1` are 87.2% and 6.21. On the same counts, the results for `COC(=O)C1=C(C)N(C)C(C)=C(C(=O)OC)C1c1ccc(Cl)c([N+](=O)[O-])c1` are 35.1% and 5.47.

Regarding `COC(=O)C1=C(C)N(C)C(C)=C(C(=O)OC)C1c1ccccc1Cl`, in data set [1], the inhibition at 1 µM was 50.6%. Besides, in data set [2], the “pEC50 for potentiation of CFTR deltaF508” value is 5.44. In data set [1], `COC(=O)C1=C(C)NC(C)=C(C(=O)OC)C1c1ccc(-c2cccc(Cl)c2Cl)o1` displayed an inhibition at 1 µM of 10.3%. In addition, in data set [2], the “pEC50 for potentiation of CFTR deltaF508” value is 5.43. `CCOC(=O)C1=C(C)NC(C)=C(C(=O)OCC)C1c1ccc(OC)c(OC)c1` came in with an inhibition at 1 µM in data set [1] of 100%. The “pEC50 for potentiation of CFTR deltaF508” value in data set [2] was 6.21. In data set [1], `CCOC(=O)C1=C(C)N=C(C)/C(=C(/O)OCC)C1/C=C/c1ccccc1` (stereo unspecified) returned an inhibition at 1 µM of 46.3%. In turn, `CCc1ccc(C2C(C(=O)OC)=C(C)NC(C)=C2C(=O)OC)cc1` had an inhibition at 1 µM in data set [1] of 37.4%. The “pEC50 for potentiation of CFTR deltaF508” value in data set [2] is given as 6.14. For `COCCOC(=O)C1=C(C)NC(C)=C(C(=O)OCCOC)C1c1ccc(-c2cccc(Cl)c2Cl)o1`, in that order: 44.9% and 5.7.

As to `CCOC(=O)C1=C(C)NC(C)=C(C(=O)OCC)C1c1ccc(O)c(OCC)c1`, in data set [1], the inhibition at 1 µM turned out to be 22.8%. Also, in data set [2], the “pEC50 for potentiation of CFTR deltaF508” value is 5.35. Take `COC(=O)C1=C(C)N=C(C)/C(=C(/O)OC)C1c1c(F)cccc1Cl` (stereo unspecified): the inhibition at 1 µM in data set [1] is 100%. Besides, the “pEC50 for potentiation of CFTR deltaF508” value in data set [2] came to 6.8. Compound `C=CCOC(=O)C1=C(C)NC(C)=C(C(=O)OCC=C)C1c1ccc(C(C)C)cc1` showed an inhibition at 1 µM in data set [1] of 64%. The “pEC50 for potentiation of CFTR deltaF508” value in data set [2] is given as 6.6. Regarding `COC(=O)C1=C(C)NC(C)=C(C(=O)OC)C1c1ccc(OC)cc1`, testing at 1 µM in data set [1] gave an inhibition of 9.1%. The “pEC50 for potentiation of CFTR deltaF508” value in data set [2] came to 6.29. On the same counts, the results for `C=CCOC(=O)C1=C(C)NC(C)=C(C(=O)OCC=C)C1c1ccc(C(C)(C)C)cc1` are 5.9% and 6.96. On the same counts, the results for `COC(=O)C1=C(C)NC(C)=C(C(=O)OC)C1c1ccc(C(C)C)cc1` are 54.9% and 6.18. For `COC(=O)C1=C(C)NC(C)=C(C(=O)OC)C1c1ccc(Cl)cc1Cl`, in that order: 100% and 6.72.

As for `CCOC(=O)C1=C(C)NC(C)=C(C(=O)OCC)C1c1ccc(C(C)(C)C)cc1`, testing at 1 µM in data set [1] gave an inhibition of 32.1%. Besides, the “pEC50 for potentiation of CFTR deltaF508” value in data set [2] amounted to 5.89. For the compound `CC1=C(C(=O)OC(C)C)C(c2ccc(Cl)cc2)C(C(=O)OC(C)C)=C(C)N1`, testing at 1 µM in data set [1] gave an inhibition of 50.5%. Moreover, the “pEC50 for potentiation of CFTR deltaF508” value in data set [2] came out at 6.14. For `C=CCOC(=O)C1=C(C)NC(C)=C(C(=O)OCC=C)C1c1ccc(N(C)C)cc1`, in that order: 23.9% and 5.82.

On to `C=CCOC(=O)C1=C(C)NC(C)=C(C(=O)OCC=C)C1c1ccc(I)cc1`, for which, in data set [1], the inhibition at 1 µM is 37.5%. Besides, the “pEC50 for potentiation of CFTR deltaF508” value in data set [2] is 5.77. For `CCOc1ccc(C2C(C(=O)OC)=C(C)NC(C)=C2C(=O)OC)cc1`, in that order: 14.6% and 5.27. In data set [1], `CCOC(=O)C1=C(C)NC(C)=C(C(=O)OCC)C1c1c(F)c(F)c(F)c(F)c1F` gave an inhibition at 1 µM of 100%. The compound `COC(=O)C1=CNC=C(C(=O)OC)C1c1ccccc1Cl` gave an inhibition at 1 µM in data set [1] of 19.7%. On to `CCOC(=O)C1=C(C)NC(C)=C(C(=O)OC)C1c1ccc([N+](=O)[O-])cc1` (stereo unspecified), for which, in data set [1], the inhibition at 1 µM was found to be 79.2%.

`CCOC(=O)C1=C(C)NC(C)=C(C(=O)OC)C1c1cccc([N+](=O)[O-])c1` (stereo unspecified) [NITRENDIPINE] came in with an inhibition at 1 µM in data set [1] of 100%. Take `CCOC(=O)C1=C(C)NC(C)=C(C(=O)OCC)C1c1ccc(OC)cc1`: in data set [1], at 1 µM the inhibition was 34.2%. As for `COC(=O)C1=C(C)N(c2ccc(N(C)C)cc2)C(C)=C(C(=O)OC)C1c1ccc(Cl)cc1`, in data set [1], the inhibition at 1 µM turned out to be 12.9%. Still for that read-out and setting: under `CCOC(=O)C1=C(C)NC(C)=C(C(=O)OCC)C1c1cccc([N+](=O)[O-])c1` stands 100%.

Turning to `COC(=O)C1=C(C)NC(C)=C(C(=O)OC)C1c1ccc(N(C)C)cc1`, in data set [1], the inhibition at 1 µM stood at 4.1%. Same read-out and setting: under `CCOC(=O)C1=C(C)N=C(C)/C(=C(/O)OCC)C1/C=C/c1ccccc1OC` (stereo unspecified) stands 27.6%. On the same count and under the same terms, under `CCOC(=O)C1=C(C)NC(C)=C(C(=O)OCC)C1c1ccc(Cl)cc1` stands 93.3%.
